Several values for one entry are separate records, joined by “and”; a condition that tells them apart may be missing. Equal entries are not always repeated. Toxic doses and inconclusive results are not listed.

For this test, the system named is CD2F1 mice, L1210 leukemia ip, survival T/C. Kind of test: NCI In Vivo Anticancer Drug Screen. Data for tumor model L1210 Leukemia (intraperitoneal) in CD2F1 (CDF1) mice. The note with it: higher = longer survival. A digest of the protocol:
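Tumor-bearing mice (transplanted tumor) were split into treated and vehicle control groups, and the measured endpoint of each treated group was divided by that of its vehicle controls.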

The mark [1] stands for this setting: endpoint: mean survival time, dose: 100.0 mg/kg/injection, schedule: Q01DX009 (ip), vehicle: saline with Tween-80.
Setting [2] is: endpoint: mean survival time, dose: 100.0 mg/kg/injection, schedule: Q04DX003 (ip), vehicle: saline with Tween-80.
The mark [3] stands for this setting: endpoint: mean survival time, dose: 200.0 mg/kg/injection, schedule: Q01DX009 (ip), vehicle: saline with Tween-80.
The mark [4] stands for this setting: endpoint: mean survival time, dose: 200.0 mg/kg/injection, schedule: Q04DX003 (ip), vehicle: saline with Tween-80.
The mark [5] stands for this setting: endpoint: mean survival time, dose: 400.0 mg/kg/injection, schedule: Q04DX003 (ip), vehicle: saline with Tween-80.
Where [6] appears, read: endpoint: mean survival time, dose: 200.0 mg/kg/injection, schedule: Q01DX009 (ip), vehicle: other.
Setting [7] is: endpoint: mean survival time, dose: 400.0 mg/kg/injection, schedule: Q01DX009 (ip), vehicle: other.
Setting [8] is: endpoint: mean survival time, dose: 100.0 mg/kg/injection, schedule: Q04DX002 (ip), vehicle: saline with Tween-80.
Where [9] appears, read: endpoint: mean survival time, dose: 200.0 mg/kg/injection, schedule: Q04DX002 (ip), vehicle: saline with Tween-80.
Setting [10] is: endpoint: mean survival time, dose: 400.0 mg/kg/injection, schedule: Q04DX002 (ip), vehicle: saline with Tween-80.
Where [11] appears, read: endpoint: mean survival time, dose: 50.0 mg/kg/injection, schedule: Q04DX002 (ip), vehicle: saline with Tween-80.
[12] abbreviates: endpoint: mean survival time, dose: 100.0 mg/kg/injection, schedule: Q01DX009 (ip), vehicle: other.

For the compound `O=C1OC(c2ccc(O)cc2)(c2ccc(O)cc2)c2ccccc21`, the T/C under setting [1] was 95 % of control; the T/C under setting [2] is 107 % of control; the T/C under setting [3] was 91 % of control; the T/C under setting [4] was 94 % of control; the T/C (endpoint: mean survival time, dose: 400.0 mg/kg/injection, schedule: Q01DX009 (ip), vehicle: saline with Tween-80) is 89 % of control; the T/C under setting [5] was 93 % of control.

With `CCCCNC(C)(C)C(SS)c1cccs1` (stereo not given), the T/C is 101 % of control (endpoint: mean survival time, dose: 66.0 mg/kg/injection, schedule: Q01DX009 (ip), vehicle: other); 108 % of control (endpoint: mean survival time, dose: 150.0 mg/kg/injection, schedule: Q01DX009 (ip), vehicle: other); 94 % of control under setting [6]; 92 % of control under setting [7].

As for `CC(/C=N/NC(N)=S)Cc1ccc(C(C)C)cc1` (stereo not given), the T/C reads like this: (endpoint: mean survival time, dose: 3.12 mg/kg/injection, schedule: Q01DX009 (ip), vehicle: acetone) 104 % of control; (endpoint: mean survival time, dose: 6.25 mg/kg/injection, schedule: Q01DX009 (ip), vehicle: acetone) 104 % of control; (endpoint: mean survival time, dose: 12.5 mg/kg/injection, schedule: Q01DX009 (ip), vehicle: acetone) 104 % of control.

For the compound `COC(=O)C1C(C(=O)OC)C2(C)C(=O)C1(C)C(c1ccccc1)=C2c1ccccc1` (stereo not given), the T/C was 101 % of control under setting [8], 90 % of control under setting [9] and 90 % of control under setting [10].

In the case of `CC1CCN=C(CCC2CCCCC2=O)O1` (stereo not given), the T/C was 96 % of control under setting [2], 101 % of control under setting [4] and 96 % of control under setting [5].

For `CCCCCCCCCCCCCCCCCCOCCOCCOCCOCCO`, the T/C is 91 % of control (endpoint: mean survival time, dose: 25.0 mg/kg/injection, schedule: Q04DX002 (ip), vehicle: saline with Tween-80); 100 % of control under setting [11]; 94 % of control under setting [8]; 94 % of control under setting [10].

`COc1cc(OC)c2c(O)c3c(c(-c4ccc5cc6c(c(O)c5c4O)C(=O)CC(C)(O)C6)c2c1)CC(C)OC3C` (stereo not given): the T/C is 103 % of control (endpoint: mean survival time, dose: 0.5 mg/kg/injection, schedule: Q01DX009 (ip), vehicle: Klucel (hydroxypropylcellulose) (HPC)); 100 % of control (endpoint: mean survival time, dose: 1.0 mg/kg/injection, schedule: Q01DX009 (ip), vehicle: Klucel (hydroxypropylcellulose) (HPC)); 103 % of control (endpoint: mean survival time, dose: 2.0 mg/kg/injection, schedule: Q01DX009 (ip), vehicle: Klucel (hydroxypropylcellulose) (HPC)).

As to `Cc1ccc2c(ccc(CC(=S)[S-])[n+]2C)c1`, the T/C (endpoint: mean survival time, dose: 6.25 mg/kg/injection, schedule: Q01DX009 (ip), vehicle: Klucel (hydroxypropylcellulose) (HPC)) is 97 % of control and 107 % of control; the T/C (endpoint: mean survival time, dose: 12.5 mg/kg/injection, schedule: Q01DX009 (ip), vehicle: Klucel (hydroxypropylcellulose) (HPC)) was 94 % of control and 109 % of control; the T/C (endpoint: mean survival time, dose: 25.0 mg/kg/injection, schedule: Q01DX009 (ip), vehicle: Klucel (hydroxypropylcellulose) (HPC)) is 93 % of control; the T/C (endpoint: mean survival time, dose: 50.0 mg/kg/injection, schedule: Q01DX009 (ip), vehicle: Klucel (hydroxypropylcellulose) (HPC)) is 91 % of control and 95 % of control; the T/C (endpoint: mean survival time, dose: 100.0 mg/kg/injection, schedule: Q01DX009 (ip), vehicle: Klucel (hydroxypropylcellulose) (HPC)) was 90 % of control and 96 % of control.

Take `C/C=C/C=C/C(=O)n1nnn(/C=C/C=C/C)c1=O`: the T/C under setting [11] is 98 % of control, the T/C under setting [8] was 91 % of control, the T/C under setting [9] is 95 % of control and the T/C under setting [10] is 98 % of control.

As to `[Cl][Pt+2][Cl].[NH-]C1CCCC1.[NH-]C1CCCC1`, the T/C (endpoint: mean survival time, dose: 5.0 mg/kg/injection, schedule: Q01DX009 (ip), vehicle: Klucel (hydroxypropylcellulose) (HPC)) was 103 % of control; the T/C (endpoint: mean survival time, dose: 10.0 mg/kg/injection, schedule: Q01DX009 (ip), vehicle: Klucel (hydroxypropylcellulose) (HPC)) is 104 % of control; the T/C (endpoint: mean survival time, dose: 20.0 mg/kg/injection, schedule: Q01DX009 (ip), vehicle: Klucel (hydroxypropylcellulose) (HPC)) is 116 % of control and 104 % of control and 108 % of control; the T/C (endpoint: mean survival time, dose: 20.0 mg/kg/injection, schedule: Q04DX003 (ip), vehicle: Klucel (hydroxypropylcellulose) (HPC)) was 103 % of control; the T/C (endpoint: mean survival time, dose: 40.0 mg/kg/injection, schedule: Q01DX001 (ip), vehicle: Klucel (hydroxypropylcellulose) (HPC)) was 96 % of control; the T/C (endpoint: mean survival time, dose: 40.0 mg/kg/injection, schedule: Q01DX009 (ip), vehicle: Klucel (hydroxypropylcellulose) (HPC)) is 115 % of control and 104 % of control. Also, the T/C is, setting by setting: (endpoint: mean survival time, dose: 40.0 mg/kg/injection, schedule: Q04DX003 (ip), vehicle: Klucel (hydroxypropylcellulose) (HPC)) 103 % of control; (endpoint: mean survival time, dose: 80.0 mg/kg/injection, schedule: Q01DX001 (ip), vehicle: Klucel (hydroxypropylcellulose) (HPC)) 105 % of control; (endpoint: mean survival time, dose: 80.0 mg/kg/injection, schedule: Q01DX009 (ip), vehicle: Klucel (hydroxypropylcellulose) (HPC)) 121 % of control and 124 % of control; (endpoint: mean survival time, dose: 80.0 mg/kg/injection, schedule: Q04DX003 (ip), vehicle: Klucel (hydroxypropylcellulose) (HPC)) 111 % of control; (endpoint: mean survival time, dose: 160.0 mg/kg/injection, schedule: Q01DX001 (ip), vehicle: Klucel (hydroxypropylcellulose) (HPC)) 102 % of control; (endpoint: mean survival time, dose: 160.0 mg/kg/injection, schedule: Q01DX009 (ip), vehicle: Klucel (hydroxypropylcellulose) (HPC)) 115 % of control. Moreover, the T/C (endpoint: mean survival time, dose: 160.0 mg/kg/injection, schedule: Q04DX003 (ip), vehicle: Klucel (hydroxypropylcellulose) (HPC)) is 111 % of control; the T/C (endpoint: mean survival time, dose: 320.0 mg/kg/injection, schedule: Q01DX001 (ip), vehicle: Klucel (hydroxypropylcellulose) (HPC)) is 106 % of control; the T/C (endpoint: mean survival time, dose: 320.0 mg/kg/injection, schedule: Q01DX009 (ip), vehicle: Klucel (hydroxypropylcellulose) (HPC)) was 115 % of control and 103 % of control; the T/C (endpoint: mean survival time, dose: 320.0 mg/kg/injection, schedule: Q04DX003 (ip), vehicle: Klucel (hydroxypropylcellulose) (HPC)) is 108 % of control; the T/C (endpoint: mean survival time, dose: 640.0 mg/kg/injection, schedule: Q01DX001 (ip), vehicle: Klucel (hydroxypropylcellulose) (HPC)) was 114 % of control.

As to `O=C(O)C1(C(=O)O)CCC1.[NH2-].[NH2-].[Pt+2]`, the T/C is 110 % of control (endpoint: mean survival time, dose: 3.12 mg/kg/injection, schedule: Q01DX009 (ip), vehicle: dextrose); 118 % of control (endpoint: mean survival time, dose: 6.25 mg/kg/injection, schedule: Q01DX009 (ip), vehicle: dextrose); 107 % of control (endpoint: mean survival time, dose: 6.25 mg/kg/injection, schedule: Q01DX009 (ip), vehicle: other); 110 % of control (endpoint: mean survival time, dose: 12.5 mg/kg/injection, schedule: Q01DX009 (ip), vehicle: dextrose); 108 % of control (endpoint: mean survival time, dose: 12.5 mg/kg/injection, schedule: Q01DX009 (ip), vehicle: saline with Tween-80); 109 % of control (endpoint: mean survival time, dose: 12.5 mg/kg/injection, schedule: Q04DX003 (ip), vehicle: water). Besides, the T/C is 117 % of control (endpoint: mean survival time, dose: 25.0 mg/kg/injection, schedule: Q01DX009 (ip), vehicle: saline with Tween-80); 152 % of control (endpoint: mean survival time, dose: 25.0 mg/kg/injection, schedule: Q01DX009 (ip), vehicle: water); 112 % of control (endpoint: mean survival time, dose: 25.0 mg/kg/injection, schedule: Q04DX003 (ip), vehicle: water); 113 % of control (endpoint: mean survival time, dose: 50.0 mg/kg/injection, schedule: Q01DX009 (ip), vehicle: dextrose); 90 % of control under setting [12]; 96 % of control under setting [1]. Besides, the T/C is, setting by setting: (endpoint: mean survival time, dose: 100.0 mg/kg/injection, schedule: Q04DX003 (ip), vehicle: water) 105 % of control; (endpoint: median survival time, dose: 60.0 mg/kg/injection, schedule: Q01DX009 (ip), vehicle: clinical formulation) 109 % of control; (endpoint: median survival time, dose: 90.0 mg/kg/injection, schedule: Q01DX009 (ip), vehicle: dextrose) 124 % of control.

Consider `COc1ccc(C[C@@H]2NC[C@@H](O)[C@@H]2OC(C)=O)cc1`, for which the T/C by setting is: under setting [1], 98 % of control; under setting [2], 105 % of control; under setting [3], 104 % of control; under setting [4], 103 % of control; under setting [5], 100 % of control.

Turning to `CCOC(=O)C(OC(=O)c1ccccc1)c1ccccc1` (stereo not given), the T/C runs as follows: under setting [12], 98 % of control; under setting [6], 96 % of control; under setting [7], 96 % of control.

The record behind these values is PubChem BioAssay AID256 (DTP/NCI, 2004).
